Laboratory results as given in patent publication US20120264703A1, “Methods And Compositions For The Treatment Of Anxiety Disorders, Including Post Traumatic Stress Disorder (PTSD) And Related Central Nervous System (CNS) Disorders” (priority 2010, published 2012).

Key:
alkaline phosphatase = target: T1, alkaline phosphatase (Bos taurus, UniProt P19111); test: Dephosphorylation of phosphocarvedilol by alkaline phosphatase (HPLC); type: biochemical; conditions: alkaline phosphatase 1390 Units, overnight at 37° C., TRIS pH 8.1
T1 construct: purchased Sigma P0114
Experimental: The dried residue was reconstituted in a 1 mL solution of TRIS (pH 8.1, 0.05M) and NaCl (0.1M) for dephosphorylation with alkaline phosphatase. Dephosphorylation was initiated by adding 10 μL (1390 Units) of alkaline phosphatase (Sigma P0114) and incubating overnight at 37° C. 10 μL aliquots were removed and diluted to 100 μL in mobile phase before analyzing by injecting onto the HPLC column (as described above) in 20 μL amounts. After treatment with the alkaline phosphatase, a carvedilol peak with a retention time of about 14.95 minutes was detected.

[1] = in vivo; cited from earlier work
[2] = cited from earlier work
[3] = low solubility and low absorption; cited from earlier work
[4] = Clinical trial of carvedilol versus placebo in PTSD: adverse events, blood pressure, heart rate; type: in vivo, human
From the text: The efficacy of carvedilol was examined in a clinical trial using a parallel group, randomized, double-blind method with 50% of the outpatients receiving a flexible dose of alpha and beta blocker carvedilol for treatment of PTSD and the other 50% receiving a flexible close of matching placebo tablets. The trial consisted of a one week screening period followed by baseline symptom measurement and five weeks of PTSD pharmacotherapy. Patient assessments took place each week throughout the course of the trial. At the baseline visit, all patients were titrated to one dose of 3.125 mg carvedilol or placebo in the morning and an additional dose in the evening for the first week of the trial (6.25 mg carvedilol per day). At the discretion of the investigator the dose of carvedilol or placebo could be increased to a maximum of two tablets (6.250 mg carvedilol) in the morning and two tablets (6.250 mg carvedilol) in the evening during the following visit (week 1). At the week 2 visit the investigator could increase the dose of carvedilol or placebo to a maximum of 5 pills daily (15.625 mg carvedilol per day) based on patient tolerability and treatment response. After the second visit investigators were encouraged to maintain patient dose throughout the remainder of the five week trial although they were allowed to decrease the dose in the event that tolerability issues arose.

male Sprague-Dawley rats = test: Escape/avoidance behavior after tailshock stress (Example 1); type: in vivo, rat; conditions: compared to animals that did not receive medication
From the text: Subjects are male, Sprague-Dawley (SD) rats. They are approximately 60-days-old and 300-350 g at the time of testing. They are maintained on ad lib food and water except during the stress and escape/avoidance sessions. Subjects are maintained on a 12:12 light/dark cycle, with lights on at 0700. […] The animals that receive shocks are restrained in plastic tubes (Harvard Apparatus, Inc, Holliston, Mass., USA) and have tail electrodes attached. The single shock session consists of forty 3-s, 2-mA tailshocks, presented on a variable time (VT) 3-min schedule, making the shock session approximately 2 h in duration. Escape/avoidance sessions are conducted in 4 operant chambers (Coulbourn, Inc, Allentown, Pa., USA). The chambers are 30.5 cm wide×25.4 cm deep×30.5 cm high and have a lever mounted on one wall. Subjects are allowed approximately 1 min to explore the chamber before the session begins. The trial begins with a warning signal and houselight. […] 60 s of the warning signal, they receive 1.0-mA footshock through the grid floor. […] A […] shock is classified as an “escape”, while a response that occurred during the initial 60 s of the warning signal before the shock is classified as an “avoidance.” The number of escape and avoidance responses by hour across the session, percent avoidance, and the number of leverpresses during the safety period (a putative measure of anxiety) are analyzed. […]

[5] = Pharmacokinetic properties of carvedilol by oral dosage form and transdermal patch (Example 6); type: in vivo, human
Experimental: The pharmacokinetic properties of orally and transdermal patch delivered carvedilol can be measured in a human subject or animal model using standard procedures. In brief, a carvedilol oral dosage form of between 5-15 mg can be administered to a human subject in a tablet or capsule. A similar dosage can be administered to a human subject from a transdermal patch that is formulated and evaluated for skin permeation (such as as described by Ubaidulla et al., 2007). After administration of carvedilol, blood samples are drawn from the subject at time intervals (such as 1, 2, 3, 5, 8, 12, and 24 hours), plasma is separated by centrifugation, and plasma samples are stored at −70° C. until analyzed. The plasma carvedilol concentration is measured by reverse phase-high performance liquid chromatography (Ubaidulla et al., 2007).
The plasma concentration of carvedilol at different time intervals is subjected to pharmacokinetic analysis to calculate various parameters: maximum plasma concentration (Cmax), time to reach maximum concentration (Tmax), and area under the plasma concentration-time curve (AUC0→24) as described (Ubaidulla et al., 2007). The values of Cmax and Tmax are read directly from the arithmetic plot of time vs plasma concentration of carvedilol. The AUC is calculated by using the trapezoidal rule. […]

[6] = test system: patients with Post Traumatic Stress Disorder (PTSD); test: Clinical trial of carvedilol versus placebo in the treatment of PTSD (efficacy scales); type: in vivo, human; set-up: key to Davidson Trauma Scale (DTS) change score / mean change score (DTS): change in DTS total score (34-item patient-rated, max 136); key to Insomnia Severity Index (ISI) change score: change in ISI score (self-rated 7-item scale, max 28); key to Davidson Trauma Scale (DTS) change score, mean change (SD): mean (SD) change in DTS total score (max 136); conditions: for Clinician Administered PTSD Scale (CAPS II) change score: completer only analysis
From the text: The efficacy of carvedilol was examined in a clinical trial using a parallel group, randomized, double-blind method with 50% of the outpatients receiving a flexible dose of alpha and beta blocker carvedilol for treatment of PTSD and the other 50% receiving a flexible close of matching placebo tablets. The trial consisted of a one week screening period followed by baseline symptom measurement and five weeks of PTSD pharmacotherapy. Patient assessments took place each week throughout the course of the trial. Patients between 18 and 70 years of age were eligible for enrollment. A minimum score of 60 was required on the Clinician Administered PTSD Scale (CAPS-II) at the screening visit and all patients met clinical criteria for PTSD in accordance with the Diagnostic and Statistical Manual IV and confirmed by the Mini International Neuropsychological Interview (MINI). Eighty-three subjects were enrolled and randomized to carvedilol or placebo. […] The final efficacy analysis included 38 patients allocated to carvedilol, and 39 patients allocated to placebo. All of the patients, study coordinators, and principal investigators were blinded from the patient treatment allocation. Patients were randomly assigned to kits containing carvedilol or placebo at the baseline visit. At the baseline visit, all patients were titrated to one dose of 3.125 mg carvedilol or placebo in the morning and an additional dose in the evening for the first week of the trial (6.25 mg carvedilol per day). At the discretion of the investigator the dose of carvedilol or placebo could be increased to a maximum of two tablets (6.250 mg carvedilol) in the morning and two tablets (6.250 mg carvedilol) in the evening during the following visit (week 1). At the week 2 visit the investigator could increase the dose of carvedilol or placebo to a maximum of 5 pills daily (15.625 mg carvedilol per day) based on patient tolerability and treatment response. After the second visit investigators were encouraged to maintain patient dose throughout the remainder of the five week trial although they were allowed to decrease the dose in the event that tolerability issues arose. Although a minimum score of 60 on the CAPS-II was required at the screening visit as entry criteria, the Davidson Trauma Scale (DTS) was used as primary outcome measurement. The DTS is a 34-item patient rated scale with a maximum total score of 136. The DTS is designed to measure frequency and severity of three subtypes of PTSD symptoms: intrusion, avoidance and hyperarousal. Patients completed the DTS at the baseline visit and at each visit throughout the course of the trial. Secondary outcome measures included the Insomnia Severity Index (ISI), the Clinician Global Impressions (CGI) Scale, and each of the three DTS subscales. The ISI is a self-rated 7-item scale (maximum score=28) designed to measure insomnia during clinical research. The ISI was completed at each visit throughout the trial. The CGI was also completed during each visit. As an additional secondary outcome, the change in CAPS-II score was evaluated from the screening visit to the last trial visit for patients that completed the trial. The trial data analysis was designed to investigate the hypothesis that carvedilol would provide relief from symptoms for patients clinically diagnosed with PTSD. To evaluate this possibility, an analysis of covariance (ANCOVA) test was conducted on the primary outcome variable and a series of independent samples t tests were conducted on secondary outcome variables. Each statistical test was conducted using SPSS version 19.0 (IBM). All patients that completed the baseline visit and at least one follow up measurement were included in the analysis. […] Therefore, the final completed measurement of PTSD symptoms was used as the end data point in the event that patients terminated from the trial early. […]

[7] = males and females that were not veterans
[8] = males and females that were not veterans (n=31)

T1 sequence (P19111 20-506): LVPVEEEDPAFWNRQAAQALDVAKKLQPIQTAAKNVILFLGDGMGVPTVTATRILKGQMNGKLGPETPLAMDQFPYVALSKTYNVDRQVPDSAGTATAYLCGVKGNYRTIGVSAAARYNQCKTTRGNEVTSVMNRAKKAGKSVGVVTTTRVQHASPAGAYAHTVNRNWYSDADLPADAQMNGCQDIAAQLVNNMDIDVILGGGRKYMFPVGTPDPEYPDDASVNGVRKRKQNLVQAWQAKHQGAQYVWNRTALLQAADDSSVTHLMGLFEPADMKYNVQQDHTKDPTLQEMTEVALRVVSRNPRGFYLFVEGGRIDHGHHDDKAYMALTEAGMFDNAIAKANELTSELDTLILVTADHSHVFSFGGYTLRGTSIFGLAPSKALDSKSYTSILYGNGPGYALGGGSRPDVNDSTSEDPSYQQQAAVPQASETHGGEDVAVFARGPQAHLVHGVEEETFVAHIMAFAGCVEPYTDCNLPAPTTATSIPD

COc1ccccc1OCCNCC(COc1cccc2[nH]c3ccccc3c12)OP(=O)([O-])[O-].[Na+].[Na+] (stereo not drawn)
generation of carvedilol by enzymatic dephosphorylation (HPLC) (alkaline phosphatase): the carvedilol HPLC peak reappeared

COc1ccccc1OCCNCC(O)COc1cccc2[nH]c3ccccc3c12 (racemic) [carvedilol, (±) 1-(9H-carbazol-4-yloxy)-3-[[2(2-methoxyphenoxy)ethyl]amino]-2-propanol]
plasma half-life [1]: approximately 6 hours
logarithmic partition coefficient, log octanol/buffer pH 7.4 [2]: 0.61±0.06
Biopharmaceutics Classification System class [3]: Class 4
patients that reported adverse events ([4]; 28 patients assigned to carvedilol): 66%
mean change in diastolic blood pressure ([4]; baseline visit to end of study): −0.7 mm Hg
mean change in heart rate ([4]; baseline visit to end of study): −3.7 beats/minute
mean change in systolic blood pressure ([4]; baseline visit to end of study): −4.3±9.7 mm Hg
adverse events that occurred in over 5% of carvedilol patients ([4]; human, in vivo): somnolence, headache and common cold
number of avoidance responses 24 h after tailshock (male Sprague-Dawley rats): decrease in the number of avoidance response 24 h later
Cmax, oral versus transdermal patch administration ([5]; oral and transdermal patch): approximately similar
AUC, transdermal patch relative to oral administration ([5]; transdermal patch vs oral): 2.5 to 3 fold
mean change score (DTS) ([6]; 15 female assault victims (physical or sexual assault)): −31.8
mean DTS change score ([6]; all patients assigned to carvedilol (n=38), baseline to final visit, LOCF, 6.25-15.625 mg per day, five weeks): −24.6 (SD±23.8)
effect size d, change score, carvedilol vs placebo ([6]; female assault victims): 0.95
effect size d, DTS Avoidance Subscale, carvedilol vs placebo [6, 7]: d = 0.21
effect size d, DTS Hyperarousal Subscale, carvedilol vs placebo [6, 7]: d = 0.18
effect size d, DTS Intrusiveness Subscale, carvedilol vs placebo [6, 7]: d = 0.61
effect size d, DTS change score, carvedilol vs placebo [6, 7]: d = 0.36
effect size d, Insomnia Severity Index, carvedilol vs placebo [6, 7]: d = 0.47
DTS Avoidance Subscale change score [6, 8]: −8.7 ± 12.4
DTS Hyperarousal Subscale change score [6, 8]: −7.7 ± 6.3
DTS Intrusiveness Subscale change score [6, 8]: −8.8 ± 8.8
Insomnia Severity Index (ISI) change score [6, 8]: −5.8 ± 6.8
Davidson Trauma Scale (DTS) change score, mean change (SD) ([6]; males and females that were not veterans (n=31, 69% female), LOCF): −25.2 ± 25.3
Clinician Administered PTSD Scale (CAPS II) change score [6, 7]: −20.6 ± 22.2
Clinician's Global Impression (CGI) change score ([6]; men (n=17)): −1.2 ± 1.3
DTS Avoidance Subscale change score ([6]; men (n=17)): −6.4 ± 8.3
DTS Hyperarousal Subscale change score ([6]; men (n=17)): −6.6 ± 7.4
DTS Intrusiveness Subscale change score ([6]; men (n=17)): −5.9 ± 7.5
Insomnia Severity Index (ISI) change score ([6]; men (n=17)): −6.8 ± 6.7
Davidson Trauma Scale (DTS) change score ([6]; men (n=17), baseline to final visit, LOCF): −18.8 (SD±19.1)
Davidson Trauma Scale (DTS) change score ([6]; men (n=17), baseline to final visit, LOCF, listed as Carvedilol): −18.8 ± 19.1
Clinician Administered PTSD Scale (CAPS II) change score ([6]; men, screening visit to week 7 final visit): −16.2 ± 19.0
Clinician's Global Impression (CGI) change score ([6]; women (n=21)): −1.8 ± 0.2
DTS Avoidance Subscale change score ([6]; women (n=21)): −10.4 ± 14.0
DTS Hyperarousal Subscale change score ([6]; women (n=21)): −9.0 ± 8.9
DTS Intrusiveness Subscale change score ([6]; women (n=21)): −9.9 ± 8.2
Insomnia Severity Index (ISI) change score ([6]; women (n=21)): −5.1 ± 6.3
Davidson Trauma Scale (DTS) change score ([6]; women (n=21), baseline to final visit, LOCF): −29.2 (SD±26.5)
Davidson Trauma Scale (DTS) change score ([6]; women (n=21), baseline to final visit, LOCF, listed as Carvedilol): −29.2 ± 26.5
Clinician Administered PTSD Scale (CAPS II) change score ([6]; women, screening visit to week 7 final visit): −21.7 ± 25.2
